Measurements from US7790896B2, “RNA-selective probes for live cell imaging of nuclear structure and function” (New York University, priority 2006, dated 2010).

Experiments:
[1] = Fluorescent properties of free dye solution; type: physicochemical; details: for EM (emission λmax), Buffer / EX (excitation λmax), Buffer: TE buffer pH 7.5, dye 5 μM; for ε free (extinction coefficient) / ΦF free (quantum yield): TE buffer pH 7.5, dye 5 μM for E36, 10 μM for E144 and F22; for ΦF free (quantum yield): Rhodamine 6G standard
Protocol: (§1) The fluorescence spectra data in the primary screening and selected dyes titration assay study was obtained by Gemini XS plate reader. RNA solution was prepared right before the assay experiments to avoid possible degradation and contamination. In the primary screening, 1 mg/mL RNA (type VI from torula yeast) buffer solution was used. Point scans were carried out first using five Ex/Em point sets ([…], 400/500, 450/550, 500/600, 550/650 nm). Spectra scans were then carried out for the selected dyes. Excitation wavelengths were set at 350 nm, 400 nm, 450 nm, 500 nm, and 550 nm and the emission wavelengths were scanned. RNA (16S- and 23S-ribosomal from E. coli) and DNA (salmon testes) titration experiments and quantum yield/extinction coefficient determination for the three best dyes were carried out by the plate reader as well. Excitation λmax obtained from F-2500 Hitachi Fluorophotometer was used. Absorbance wavelength was determined by SpectraMax Plus^384 absorbance plate reader. […] was chosen as standard and 480 nm was used as excitation wavelength in the scanning for quantum yield determination. […] Generally, the λmax (nm) of emission was determined by scanning a fixed excitation first, and the μmax (nm) of excitation was determined by scanning emission spectrum with a fixed μem (nm). The detailed fluorescent properties of three selected dyes including; excitation/emission μmax, the quantum yield and extinction coefficient of both free dye solution and dye-RNA solution were assessed (Table 5).

[2] = system: RNA, 16S- and 23S-ribosomal from E. coli; assay: Dye concentration dependency titration with RNA; type: binding; details: dye 0.15 μM to 10 μM, RNA 50 μg/mL
Protocol: Samples containing 50 μg/mL RNA in TE buffer with an increasing concentration of compound from 0.15 μM to 10 μM. Shown here is the intensity increase recorded at the emission λmax wavelength of each dye. […] The samples contain fixed concentration of dyes (E36: 5 μM; E144: 10 μM; F22: 10 μM) in TE buffer with an increasing concentration of RNA or DNA from 0.19 μg/mL to 200 μg/mL. Data points were in duplicated in individual experiments, and error bars represent standard deviation.
The fluorescence spectra data in the primary screening and selected dyes titration assay study was obtained by Gemini XS plate reader. RNA solution was prepared right before the assay experiments to avoid possible degradation and contamination. In the primary screening, 1 mg/mL RNA (type VI from torula yeast) buffer solution was used. Point scans were carried out first using five Ex/Em point sets ([…], 400/500, 450/550, 500/600, 550/650 nm). Spectra scans were then carried out for the selected dyes. Excitation wavelengths were set at 350 nm, 400 nm, 450 nm, 500 nm, and 550 nm and the emission wavelengths were scanned. RNA (16S- and 23S-ribosomal from E. coli) and DNA (salmon testes) titration experiments and quantum yield/extinction coefficient determination for the three best dyes were carried out by the plate reader as well. Excitation λmax obtained from F-2500 Hitachi Fluorophotometer was used. Absorbance wavelength was determined by SpectraMax Plus^384 absorbance plate reader. […] was chosen as standard and 480 nm was used as excitation wavelength in the scanning for quantum yield determination.
The RNA binding characteristics of these dyes was further examined by determining if the fluorescent intensity was concentration dependent (FIG. 3A). […] Moreover, a slight emission Ma red shift was observed (total 8 nm) with the increasing concentration of E36.

[3] = system: RNA (16S- and 23S-ribosomal from E. coli); assay: Fluorescent properties of dye-RNA solution; type: binding; details: for EM (emission λmax), RNA / EX (excitation λmax), RNA: TE buffer pH 7.5, dye 5 μM; for EM (emission λmax), RNA / EX (excitation λmax), RNA / ΦF RNA (quantum yield) / ε RNA (extinction coefficient): RNA 200 μg/mL; for ΦF RNA (quantum yield) / ε RNA (extinction coefficient): TE buffer pH 7.5, dye 5 μM for E36, 10 μM for E144 and F22; for ΦF RNA/ΦF free: ratio of quantum yields with RNA 200 μg/mL and free
Protocol: as §1

[4] = system: Fixed-permeabilized Hela cells; assay: DNase and RNase digest test; type: cell-based, human; details: dye 50 μM, 2 hours; for Fluorescence after RNase digest: 25 μg/mL DNase-Free RNase; for Fluorescence after DNase digest: 30 μg/mL DNase
Protocol: Cells were first fixed using cold (−4° C.) pure methanol for 1 minute at ambient temperature. The cell membrane was then permeabilized by immersion in 1% Triton X-100 for 2 minutes. After rinsing with PBS twice, 100 μL of 50 μM dye PBS solution was added to three adjacent wells. Cells were then incubated in this dye PBS solution for 15 minutes in ambient temperature before being rinsed with clean PBS twice. 100 μL clean PBS (as control experiment), 30 μg/mL DNase (Sigma), or 25 μg/mL DNase-Free RNase (GE) was added to the three adjacent wells and incubated at 37° C. in 5% CO2 for 2 hours. Cells were rinsed with clean PBS twice before imaging. For each dye test, the fluorescent images were obtained using equal exposure time for control, DNase and RNase experiments. DAPI (10 μM) in PBS and SYTO®RNASelect (5 μM) in PBS solution were used for dual staining experiments. Duplicate experiments have been tested.
To further confirm that the compounds selectively bind RNA, a deoxyribonuclease (DNase) and ribonuclease (RNase) digest test was performed. In DNase digest, only the DNAs in the cell would be hydrolyzed. By contrast, in RNase digest, only RNAs would be hydrolyzed. Fixed-permeabilized Hela cells were used in this experiment and DAPI and SYTO®RNASelect were used as control dyes (FIG. 6). […] Still, its higher RNA-selective binding in live cell might be due to the complicated in vivo live cell environment, which may preferably direct this dye to nucleoli.

SMILES	EM (emission λmax), Buffer [1] [nm]	EX (excitation λmax), Buffer [1] [nm]	ε free (extinction coefficient) [1] [M⁻¹ cm⁻¹]	ΦF free (quantum yield) [1]	Emission λmax red shift with increasing dye concentration [2]	Fluorescent intensity vs dye concentration (titration curve) [2]	EM (emission λmax), RNA [3] [nm]	EX (excitation λmax), RNA [3] [nm]	ΦF RNA (quantum yield) [3]	ε RNA (extinction coefficient) [3] [M⁻¹ cm⁻¹]	ΦF RNA/ΦF free [3]	Fluorescence after RNase digest [4]	Fluorescence after DNase digest [4]
C[n+]1c(/C=C/c2c[nH]c3ccccc23)ccc2ccccc21 [Dye E36]	541	457	39400	0.0019	8 nm	evidence of saturation at high concentration	548	497	0.1041	43100	54.6	dramatically diminished	stayed almost the same
COc1cc(OC)c(/C=C/c2ccc3ccccc3[n+]2C)c(OC)c1 [Dye E144]	532	440	13200	0.0056	did not show obvious wavelength shift	almost linear curve	532	456	0.0310	14600	5.5	not detectable	not detectable
COc1ccc2c(ccc(/C=C/c3ccc(N(C)C)cc3)[n+]2C)c1 [Dye F22]	598	492	17400	0.0007	did not show obvious wavelength shift	evidence of saturation at high concentration	620	548	0.0075	20000	10.7	overall decrease in intensity	nucleolar stain remained bright
